# Measured values: patent US20120165319A1, “INHIBITORS OF INTERLEUKIN-1 BETA CONVERTING ENZYME” (VERTEX PHARMACEUTICALS INCORPORATED, priority 1995, published 2012)
# Like-named read-outs stand apart in the source and are kept apart here.
# How the values were obtained:
# [1] = system: IL-1β, human peripheral blood mononuclear cells (PBMC); assay: PBMC cell assay: IL-1β assay with human PBMC or enriched adherent mononuclear cells, LPS-stimulated; assay type: cell-based
# How it was run: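 Mature IL-1β is measured by ELISA in supernatants after 16–18 hr at 37 °C, 5% CO2, with LPS (5 ng/ml final) and test compound (0.1% DMSO final). Cells are human PBMC (6×10^6 cells/ml) or plate-adherent mononuclear cells (2.5−3.0×10^5 per well), and the 5–6 compound concentrations span the ICE Ki.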
# [2] = system: IL-1β, human whole blood; assay: Whole blood assay for IL-1β production; assay type: cell-based
# How it was run: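 IL-1β was quantified by ELISA in plasma diluted 1:200. The plasma came from EDTA-anticoagulated human whole blood incubated at 30 °C for 16-18 h with LPS (final 5.0 ng/ml) plus a saline serial dilution of compound. Controls were no-LPS, no-inhibitor and highest-vehicle.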
# [3] = Homo sapiens, PBMC, * = values obtained upon reassay
# [4] = * = values obtained upon reassay, read-out: Whole human blood IC50
# [5] = Homo sapiens, * = values obtained upon reassay, read-out: Whole human blood IC50
# [6] = Homo sapiens, Table 17, read-out: Whole human blood IC50
# [7] = * = values obtained upon reassay
smiles,measurement,setting,value
"O=C1C[C@H](NC(=O)[C@@H]2CCCN3C(=O)CC[C@H](NC(=O)c4ccccc4)C(=O)N23)C(OCc2ccccc2)O1 (stereo partly drawn) [Compound 213e, [1S,9S(2RS,3S)]9-Benzoylamino-6,10-dioxo-1,2,3,4,7,8,9,10-octahydro-N-(2-benzyloxy-5-oxotetrahydrofuran-3-yl)-6H-pyridazino[1,2-a][1,2]-diazepine-1-carboxamide]",IC50,[1]; [3],900 nM
same,IC50,[2]; [4],400 nM
same,IC50,[2]; [5],600 nM
"O=C1C[C@H](NC(=O)[C@@H]2CCCN3C(=O)CC[C@H](NC(=O)c4cccc5ccccc45)C(=O)N23)C(OCc2ccccc2)O1 (stereo partly drawn) [Compound 213v, [1S,9S(2RS,3S)]N-(2-Benzyloxy-5-oxotetrahydrofuran-3-yl)-6,10-dioxo-9-(naphth-1-oylamino)-1,2,3,4,7,8,9,10-octahydro-6H-pyridazino[1,2-a][1,2]diazepine-1-carboxamide]",IC50,"[1]; Homo sapiens, PBMC, Table 17",1100 nM
same,IC50,[2]; [6],1100 nM
"O=C[C@H](CC(=O)O)NC(=O)[C@@H]1CCCN2C(=O)CC[C@H](NC(=O)c3ccccc3)C(=O)N12 [Compound 214e, [3S(1S,9S)]3-(9-Benzoylamino-6,10-dioxo-1,2,3,4,7,8,9,10-octahydro-6H-pyridazino[1,2-a][1,2]-diazepine-1-carboxamido)-4-oxobutanoic acid]",IC50,[1]; [3],1600 nM
same,IC50,[2]; [5],1300 nM
"O=C[C@H](CC(=O)O)NC(=O)[C@@H]1CCCN2C(=O)CC[C@H](NC(=O)c3cc(Cl)c(O)c(Cl)c3)C(=O)N12 [Compound 214k, [3S(1S,9S)]3-(9-(3,5-Dichloro-4-hydroxybenzoyl)amino-6,10-dioxo-1,2,3,4,7,8,9,10-octahydro-6H-pyridazino[1,2-a][1,2]diazepine-1-carboxamido)-4-oxobutanoic acid]",IC50,"[1]; Homo sapiens, PBMC, Table 17",500 nM
same,IC50,[2]; [6],580 nM
"CC(=O)Nc1ccc(C(=O)N[C@H]2CCC(=O)N3CCC[C@@H](C(=O)N[C@H](C=O)CC(=O)O)N3C2=O)cc1Cl [Compound 214l, [3S(1S,9S)]3-(9-(3-Chloro-4-acetamidobenzoyl)amino-6,10-dioxo-1,2,3,4,7,8,9,10-octahydro-6H-pyridazino[1,2-a][1,2]diazepine-1-carboxamido)-4-oxobutanoic acid]",IC50,"[1]; Homo sapiens, PBMC, Table 17",1900 nM
same,IC50,[2]; [6],1100 nM
COc1c(Cl)cc(C(=O)N[C@H]2CCC(=O)N3CCC[C@@H](C(=O)N[C@H](C=O)CC(=O)O)N3C2=O)cc1Cl [Compound 214m],IC50,"[1]; Homo sapiens, PBMC, Table 17",530 nM
same,IC50,[2]; [6],2200 nM
Cc1cc(C(=O)N[C@H]2CCC(=O)N3CCC[C@@H](C(=O)N[C@H](C=O)CC(=O)O)N3C2=O)cc(C)c1O [Compound 214w],IC50,[1]; Table 17,620 nM
same,IC50,"[2]; Table 17, read-out: Whole human blood IC50",370 nM
"CC(=O)N[C@H]1CCC(=O)N2CCC[C@@H](C(=O)N[C@@H](CC(=O)O)C(=O)COC(=O)c3c(Cl)cccc3Cl)N2C1=O [Compound 217c, [3S(1S,9S)]3-(9-Acetylamino-6,10-dioxo-1,2,3,4,7,8,9,10-octahydro-6H-pyridazino-[1,2-a][1,2]diazepine-1-carboxamido)-5-(2,6-dichlorobenzoyloxy)-4-oxopentanoic acid]",IC50,[1]; [3],1700 nM
same,IC50,[2]; [5],7000 nM
"O=C(O)C[C@H](NC(=O)[C@@H]1CCCN2C(=O)CC[C@H](NC(=O)OCc3ccccc3)C(=O)N12)C(=O)COC(=O)c1c(Cl)cccc1Cl [Compound 217d, [3S(1S,9S)]3-(9-Benzyloxycarbonylamino-6,10-dioxo-1,2,3,4,7,8,9,10-octahydro-6H-pyridazino[1,2-a][1,2]-diazepine-1-carboxamido)-5-(2,6-dichlorobenzoyloxy)-4-oxopentanoic acid]",IC50,[1]; [3],340 nM
same,IC50,[2]; [5],4000 nM
"O=C(O)C[C@H](NC(=O)[C@@H]1CCCN2C(=O)CC[C@H](NC(=O)c3ccccc3)C(=O)N12)C(=O)COC(=O)c1c(Cl)cccc1Cl [Compound 217e, [3S(1S,9S)]3-(9-Benzoylamino-6,10-dioxo-1,2,3,4,7,8,9,10-octahydro-6H-pyridazino[1,2-a][1,2]-diazepine-1-carboxamido)-5-(2,6-dichlorobenzoyloxy)-4-oxopentanoic acid]",IC50,[1]; [3],175 nM
same,IC50,[2]; [5],2000 nM
"O=C(O)C[C@H](NC(=O)[C@@H]1CCCN2C(=O)CC[C@H](NC(=O)c3ccccc3)C(=O)N12)C(=O)c1nc2cc(Cl)cc(Cl)c2o1 [Compound 223e, [3S(1S,9S)]3-(9-Benzoylamino-6,10-dioxo-1,2,3,4,7,8,9,10-octahydro-6H-pyridazino-[1,2-a][1,2]diazepine-1-carboxamido)-4-(5,7-dichlorobenzoxazol-2-yl)-4-oxobutanoic acid]",IC50,[1]; [3],3000 nM
same,IC50,[2]; [5],> 20000 nM
"O=C(O)C[C@H](NC(=O)[C@@H]1CCCN2C(=O)CC[C@H](NC(=O)c3ccccc3)C(=O)N12)C(=O)CSCc1ccccc1Cl [Compound 226e, [3S(1S,9S)]3-(9-Benzoylamino-6,10-dioxo-1,2,3,4,7,8,9,10-octahydro-6H-pyridazino[1,2-a][1,2]-diazepine-1-carboxamido)-5-(2-chlorophenyl)methylthio-4-oxopentanoic acid]",IC50,[1]; [3],1100 nM
same,IC50,[2]; [5],1800 nM
"O=C(O)CC(NC(=O)[C@@H]1CCCN2C(=O)CC[C@H](NC(=O)c3ccccc3)C(=O)N12)C(=O)CF (stereo partly drawn) [Compound 230e, [3RS,(1S,9S)]3-(9-Benzoylamino-6,10-dioxo-1,2,3,4,7,8,9,10-octahydro-6H-pyridazino[1,2-a][1,2]-diazepine-1-carboxamido)-5-fluoro-4-oxopentanoic acid]",IC50,[1]; [7],325 nM
same,IC50,[2]; [4],300 nM
O=C[C@H](CC(=O)O)NC(=O)[C@@H]1CCCN2CCC[C@H](NC(=O)c3ccccc3)C(=O)N12 [Compound 246],IC50,[1]; [3],950 nM
same,IC50,[2]; [5],10000 nM
"O=C[C@H](CC(=O)O)NC(=O)[C@@H]1CCCN2C(=O)CCN(NC(=O)c3ccccc3)C(=O)N12 [Compound 265, [3S(4S)]3-(7-Benzamido-6,10-dioxo-1,2,3,4,7,8,9,10-octahydro-6H-pyridazino[1,2-a][1,2,4]triazepine-4-carboxamido)-4-oxobutanoic acid]",IC50,[1]; [3],4300 nM
same,IC50,[2]; [5],1400 nM
"O=C(O)C[C@H](NC(=O)[C@@H]1CCCN2C(=O)CC[C@H](NC(=O)c3ccccc3)C(=O)N12)C(=O)CSc1nnnn1-c1ccccc1 [Compound 280, [3S(1S,9S)]3-(9-Benzoylamino-6,10-dioxo-1,2,3,4,7,8,9,10-octahydro-6H-pyridazino[1,2-a][1,2]diazepine-1-carboxamido)-4-oxo-5(1-phenyl-1H-tetrazole-5-thio)pentanoic acid]",IC50,[1]; [3],650 nM
same,IC50,[2]; [5],> 1000 nM
"O=C(O)C[C@H](NC(=O)[C@@H]1CCCN2C(=O)CC[C@H](NC(=O)c3ccccc3)C(=O)N12)C(=O)COc1cccnc1 [Compound 283, [3S(1S,9S)]3-[9-Benzoylamino-6,10-dioxo-1,2,3,4,7,8,9,10-octahydro-6H-pyridazino[1,2-a][1,2]diazepine-1-carboxamido]-4-oxo-5-(3-pyridyloxy)pentanoic acid]",IC50,[1]; [3],< 200 nM
same,IC50,[2]; [5],450 nM
"COC(=O)N[C@H]1CCC(=O)N2CCC[C@@H](C(=O)N[C@@H](CC(=O)O)C(=O)COC(=O)c3c(Cl)cccc3Cl)N2C1=O [Compound 284, [3S(1S,9S)]5-(2,6-Dichlorobenzoyloxy)-3-[6,10-dioxo-9-(methoxycarbonyl)amino-1,2,3,4,7,8,9,10-octahydro-6H-pyridazino[1,2-a][1,2]diazepine-1-carboxamido]-4-oxopentanoic acid]",IC50,[1]; [3],470 nM
same,IC50,[2]; [5],550 nM
"COC(=O)N[C@H]1CCC(=O)N2CCC[C@@H](C(=O)N[C@@H](CC(=O)O)C(=O)COC(=O)c3c(C)cccc3C)N2C1=O [Compound 285, [3S(1S,9S)]5-(2,6-Dimethylbenzoyloxy)-3-[6,10-dioxo-9-(methoxycarbonyl)amino-1,2,3,4,7,8,9,10-octahydro-6H-pyridazino[1,2-a][1,2]diazepine-1-carboxamido]-4-oxopentanoic acid]",IC50,[1]; [3],810 nM
same,IC50,[2]; [5],1000 nM
"CS(=O)(=O)N[C@H]1CCC(=O)N2CCC[C@@H](C(=O)N[C@@H](CC(=O)O)C(=O)COC(=O)c3cccc4ccccc34)N2C1=O [Compound 286, [3S(1S,9S)]3-(6,10-Dioxo-9-methanesulphonylamino-1,2,3,4,7,8,9,10-octahydro-6H-pyridazino[1,2-a][1,2]diazepine-1-carboxamido)-5-(1-naphthoyloxy)-4-oxopentanoic acid]",IC50,[1]; Table 18,300 nM
same,IC50,"[2]; Table 18, read-out: Whole human blood IC5O",1600 nM
"CC(C)(C)OC(=O)C[C@@H](C=O)NC(=O)[C@@H]1CCCN2C(=O)CC[C@H](NC(=O)c3ccccc3)C(=O)N12 [Compound 302, [3S(1S,9S)3-(9-Benzoylamino-6,10-dioxo-1,2,3,4,7,8,9,10-octahydro-6H-pyriazino-[1,2-a][1,2]diazapine-1-carboxamido)-amino]-4-oxobutanoic acid tert-butyl ester]",IC50,[1]; [3],> 20000 nM
same,IC50,[2]; [5],> 20000 nM
Cc1ccccc1C(=O)N[C@H]1CCC(=O)N2CCC[C@@H](C(=O)N[C@H](C=O)CC(=O)O)N2C1=O [Compound 404],IC50,[1]; [7],1800 nM
same,IC50,[1]; [3],1650 nM
same,IC50,[2]; [5],1100 nM
"O=C[C@H](CC(=O)O)NC(=O)[C@@H]1CCCN2C(=O)CC[C@H](NC(=O)c3cccc4ccccc34)C(=O)N12 [Compound 408, [3S(1S,9S)]3-[6,10-Dioxo-9-(naphth-1-oylamino)-1,2,3,4,7,8,9,10-octahydro-6H-pyridazino[1,2-a][1,2]diazepine-1-carboxamido]-4-oxobutanoic acid]",IC50,[1]; [3],1100 nM
same,IC50,[2]; [5],1000 nM
O=C[C@H](CC(=O)O)NC(=O)[C@@H]1CCCN2C(=O)CC[C@H](NC(=O)c3ccsc3)C(=O)N12 [Compound 410],IC50,[1]; [3],2000 nM
same,IC50,[2]; [5],2800 nM
